This passage reports inhibition results from patent publication US8835428B2, “Diacylglycerol acyltransferase inhibitors” (Piramal Enterprises Limited, priority 2008, dated 2014).

The assay addresses T1, hDGAT1 (Homo sapiens, UniProt O75907).
T1 construct: host or cells: Sf9 insect cells (baculovirus); microsomal preparation
T1 sequence (O75907 1-488): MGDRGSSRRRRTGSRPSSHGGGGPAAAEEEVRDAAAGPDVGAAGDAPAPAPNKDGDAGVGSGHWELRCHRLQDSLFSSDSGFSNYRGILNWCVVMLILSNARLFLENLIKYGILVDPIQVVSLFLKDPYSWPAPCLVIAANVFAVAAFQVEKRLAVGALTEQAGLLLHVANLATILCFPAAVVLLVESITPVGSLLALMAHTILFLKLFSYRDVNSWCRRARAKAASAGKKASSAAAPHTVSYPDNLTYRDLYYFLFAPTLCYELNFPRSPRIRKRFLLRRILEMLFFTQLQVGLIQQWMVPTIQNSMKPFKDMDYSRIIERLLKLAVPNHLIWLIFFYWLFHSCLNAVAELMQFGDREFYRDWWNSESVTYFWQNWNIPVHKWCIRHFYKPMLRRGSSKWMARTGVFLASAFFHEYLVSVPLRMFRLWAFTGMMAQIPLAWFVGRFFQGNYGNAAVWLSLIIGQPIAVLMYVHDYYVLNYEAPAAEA
Briefly: In-vitro DGAT1 assay (hDGAT1 microsomes from Sf9 cells, 14C oleoyl CoA, triglyceride formation). In kind it is biochemical. In short, it runs like this:
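Human DGAT1 in baculovirus-infected Sf9 microsomes (2.5–10 μg), [14C]oleoyl-CoA with 409.5, 1228.5 or 1638 μM 1,2-dioleoyl-sn-glycerol, Tris-HCl pH 7.4 buffer with BSA. Compounds screened at 10, 5 and 1 μM in duplicate. Reaction 10 min at 37 °C; heptane-extracted [14C]triglyceride counted by scintillation.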

Broadly, the inhibition is the relative decrease from the control value, in per cent. The low end stands for a response near the control, the high end for a response far below the control.

`Cc1ccc(NC(=O)Nc2ccc(F)cc2)cc1-c1cc(C(=O)NC(CC(C)C)C(=O)O)on1` (centres unmarked) [Example 132, 2-(3-(5-(3-(4-fluorophenyl)ureido)-2-methylphenyl)isoxazole-5-carboxamido)-4-methylpentanoic acid] came in with an inhibition at 10 µM of 0 to 50%. With `COC(=O)C(Cc1ccccc1)NC(=O)c1cc(-c2ccc(NC(=O)Nc3ccccc3F)cc2)no1` (centres unmarked) [Example 241, Methyl 2-(3-(4-(3-(2-fluorophenyl)ureido)phenyl)isoxazole-5-carboxamido)-3-phenylpropanoate], the inhibition at 5 µM was 0 to 50%. Turning to `O=C(O)C1(NC(=NO)c2cc(-c3ccc(Nc4nc5ccc(F)cc5s4)cc3)no2)CCCC1` [Example 66, 1-({3-[4-(6-Fluoro-benzothiazol-2-ylamino)-phenyl]-N-hydroxy-isoxazole-5-carboximidoyl}-amino)-cyclopentanecarboxylic acid], the inhibition at 10 µM lay in the range of 0 to 50%. As for `COC(=O)[C@@H](NC(=O)c1nc(-c2ccc(NC(=S)Nc3ccc(F)cc3)cc2)no1)C(C)C` [Example 354, (S)-Methyl 2-(3-(4-(3-(4-fluorophenyl)thioureido)phenyl)-1,2,4-oxadiazole-5-carboxamido)-3-methylbutanoate], the inhibition at 5 µM lay in the range of 0 to 50%. Compound `CC(C)[C@H](NC(=S)c1cc(-c2cccc(Nc3nc4ccc(F)cc4s3)c2)no1)C(=O)O` [Example 25, (S)-2-({3-[3-(6-Fluoro-benzothiazol-2-ylamino)-phenyl]-isoxazole-5-carbothioyl}-amino)-3-methyl-butyric acid] displayed an inhibition at 10 µM of 0 to 50%.

As for `CC(C)C(NC(=O)c1cc(-c2ccc(NC(=O)[C@H](O)c3ccccc3)cc2)no1)C(=O)O` (stereo partly drawn) [Example 341, 2-(3-(4-((R)-2-hydroxy-2-phenylacetamido)phenyl)isoxazole-5-carboxamido)-3-methylbutanoic acid], the inhibition at 1 µM lay in the range of 0 to 50%.

`CC(C)[C@@H](C(=O)O)N(C)C(=O)c1cc(-c2ccc(NC(=O)NC3CCCCC3)cc2)no1` [Example 312, (S)-2-(3-(4-(3-cyclohexylureido)phenyl)-N-methylisoxazole-5-carboxamido)-3-methylbutanoic acid]: the inhibition at 1 µM lay in the range of 0 to 50%.

For `COC(=O)C(NC(=O)c1cc(-c2ccc(NC(=O)Nc3ccc(-c4cc(C(=O)NC(C(=O)OC)C(C)C)on4)cc3)cc2)no1)C(C)C` (centres unmarked) [Example 281, 2-({3-[4-(3-{4-[5-(1-Methoxycarbonyl-2-methyl-propylcarbamoyl)-isoxazol-3-yl]-phenyl}-ureido)-phenyl]-isoxazol-5-carbonyl}-amino)-3-methyl-butyric acid methyl ester], the inhibition at 5 µM fell in the range of 0 to 50%. On to `COC(=O)[C@@H](NC(=O)c1nc(-c2ccc(NC(=O)Nc3ccccc3F)cc2)no1)C(C)C` [Example 348, (S)-methyl 2-(3-(4-(3-(2-fluorophenyl)ureido)phenyl)-1,2,4-oxadiazole-5-carboxamido)-3-methylbutanoate], for which the inhibition at 5 µM lay in the range of 0 to 50%. With `COC(=O)[C@@H](NC(=NO)c1cc(-c2ccc(Nc3nc4ccc(F)cc4s3)cc2)no1)c1ccccc1` [Example 56, (S)-({3-[4-(6-Fluoro-benzothiazol-2-ylamino)-phenyl]-N-hydroxy-isoxazole-5-carboximidoyl}-amino)-phenyl-acetic acid methyl ester], the inhibition at 10 µM was 0 to 50%. Turning to `CC(C)C(NC(=O)c1cc(-c2ccc(NC(=O)Nc3c(F)cccc3F)cc2)no1)C(=O)O` (centres unmarked) [Example 124, 2-(3-(4-(3-(2,6-difluorophenyl)ureido)phenyl)isoxazole-5-carboxamido)-3-methylbutanoic acid], the inhibition at 10 µM lay in the range of 75 to 100%. Still for that read-out and setting: then `CC(C)[C@H](NC(=O)c1cc(-c2cccc(Nc3nc4ccc(F)cc4s3)c2)no1)C(=O)O` [Example 23, (S)-2-({3-[3-(6-Fluoro-benzothiazol-2-ylamino)-phenyl]-isoxazole-5-carbonyl}-amino)-3-methyl-butyric acid], with 0 to 50%; and `COC(=O)[C@@H](NC(=O)c1c(-c2ccc(Nc3nc4ccc(F)cc4s3)cc2)noc1-c1ccccc1)C(C)C` [Example 68, (S)-2-({3-[4-(6-Fluoro-benzothiazol-2-ylamino)-phenyl]-5-phenyl-isoxazole-4-carbonyl}-amino)-3-methyl-butyric acid methyl ester], with 0 to 50%; and `COC[C@H](NC(=O)c1cc(-c2cccc(Nc3nc4ccc(F)cc4s3)c2)no1)C(=O)O` [Example 29, (S)-2-({3-[3-(6-Fluoro-benzothiazol-2-ylamino)-phenyl]-isoxazole-5-carbonyl}-amino)-3-methoxy-propionic acid], with 0 to 50%. The compound `COC(=O)C(NC(=O)c1cc(-c2ccc(NC(=O)Nc3ccccc3F)cc2C)no1)C(C)C` (centres unmarked) [Example 135, Methyl 2-(3-(4-(3-(2-fluorophenyl)ureido)-2-methylphenyl)isoxazole-5-carboxamido)-3-methylbutanoate] registered an inhibition at 5 µM of 0 to 50%. Compound `CC(C)[C@H](NC(=O)c1cc(-c2ccc(NC(=S)Nc3ccccc3F)cc2)no1)C(=O)O` [Example 270, (S)-2-(3-(4-(3-(2-fluorophenyl)thioureido)phenyl)isoxazole-5-carboxamido)-3-methylbutanoic acid] came in with an inhibition at 5 µM of 50 to 75%.

Regarding `COC[C@H](NC(=NO)c1cc(-c2cccc(Nc3nc4ccc(F)cc4s3)c2)no1)C(=O)OC` [Example 32, (S)-2-({3-[3-(6-Fluoro-benzothiazol-2-ylamino)-phenyl]-N-hydroxy-isoxazole-5-carboximidoyl}-amino)-3-methoxy-propionic acid methyl ester], the inhibition at 10 µM fell in the range of 0 to 50%. Compound `CC(C)[C@H](NC(=O)c1cc(-c2ccc(NC(=O)Nc3ccc(F)cc3)cc2F)no1)C(=O)O` [Example 146, (S)-2-(3-(2-fluoro-4-(3-(4-fluorophenyl)ureido)phenyl)isoxazole-5-carboxamido)-3-methylbutanoic acid] returned an inhibition at 1 µM of 50 to 75%. In the case of `COC(=O)C(C)(C)NC(=O)c1cc(-c2ccc(NC(=O)Nc3ccc(F)cc3)cc2)no1` [Example 117, Methyl 2-(3-(4-(3-(4-fluorophenyl)ureido)phenyl)isoxazole-5-carboxamido)-2-methylpropanoate], the inhibition at 10 µM lay in the range of 50 to 75%. Compound `COC(=O)[C@@H](NC(=O)c1nc(-c2ccc(NC(=S)Nc3ccccc3)cc2)no1)C(C)C` [Example 357, (S)-methyl 3-methyl-2-(3-(4-(3-phenylthioureido)phenyl)-1,2,4-oxadiazole-5-carboxamido)butanoate] displayed an inhibition at 5 µM of 0 to 50%.

The compound `CC(C)[C@@H](NC(=O)c1cc(-c2ccc(NC(=O)Nc3ccccc3Cl)cc2)no1)C(=O)O` [Example 221, (R)-2-(3-(4-(3-(2-Chlorophenyl)ureido)phenyl)isoxazole-5-carboxamido)-3-methylbutanoic acid] came in with an inhibition at 1 µM of 75 to 100%. `Cc1cc(NC(=O)Nc2ccc(F)cc2F)ccc1-c1cc(C(=O)NC(CC(C)C)C(=O)O)on1` (centres unmarked) [Example 140, 2-(3-(4-(3-(2,4-difluorophenyl)ureido)-2-methylphenyl)isoxazole-5-carboxamido)-4-methylpentanoic acid] showed an inhibition at 10 µM of 75 to 100%. As for `CC(C)C(NC(=O)c1cc(-c2ccc(NC(=O)Nc3ccc(F)cc3F)c(F)c2)no1)C(=O)O` (centres unmarked) [Example 150, 2-(3-(4-(3-(2,4-Difluorophenyl)ureido)-3-fluorophenyl)isoxazole-5-carboxamido)-3-methylbutanoic acid], the inhibition at 10 µM was 75 to 100%. As for `COC(=O)[C@H](NC(=S)c1cc(-c2ccc(Nc3nc4ccc(F)cc4s3)cc2)no1)C(C)C` [Example 39, (R)-2-({3-[4-(6-Fluoro-benzothiazol-2-ylamino)-phenyl]-isoxazole-5-carbothioyl}-amino)-3-methyl-butyric acid methyl ester], the inhibition at 10 µM was in the range of 0 to 50%. In turn, `COC(=O)[C@@H](NC(=O)c1cc(-c2ccc(NC(=S)Nc3ccc(C)cc3)cc2)no1)C(C)C` [Example 271, (S)-Methyl 3-methyl-2-(3-(4-(3-p-tolylthioureido)phenyl)isoxazole-5-carboxamido)butanoate] came in with an inhibition at 5 µM of 0 to 50%. `C=C(NC(=O)c1cc(-c2ccc(NC(=O)Nc3ccc(C)cc3)cc2)no1)C(=O)O` [Example 304, 2-(3-(4-(3-p-tolylureido)phenyl)isoxazole-5-carboxamido)acrylic acid] returned an inhibition at 1 µM of 50 to 75%.

On to `COC(=O)C(C)NC(=O)c1cc(-c2ccc(NC(=O)Nc3c(F)cccc3F)c(C)c2)no1` (centres unmarked) [Example 101, Methyl 2-(3-(4-(3-(2,6-difluorophenyl)ureido)-3-methylphenyl)isoxazole-5-carboxamido)propanoate], for which the inhibition at 10 µM was in the range of 0 to 50%.

Take `COC(=O)[C@@H](NC(=O)c1cc(-c2cccc(Nc3nc4ccc(F)cc4s3)c2)no1)C(C)C` [Example 22, (S)-2-({3-[3-(6-Fluoro-benzothiazol-2-ylamino)-phenyl]-isoxazole-5-carbonyl}-amino)-3-methyl-butyric acid methyl ester]: the inhibition at 10 µM lay in the range of 0 to 50%. The compound `CC(C)C(NC(=O)c1cc(-c2ccc(NC(=O)c3ccc(C(C)(C)C)cc3)cc2)no1)C(=O)O` (centres unmarked) [Example 297, 2-(3-(4-(4-tert-butylbenzamido)phenyl)isoxazole-5-carboxamido)-3-methylbutanoic acid] displayed an inhibition at 1 µM of 75 to 100%.
